Common to all, as to type: cell-based
Assay [1] has as its system MCF7, estrogen receptor positive, human breast cancer cells. The assay is described as follows: Cell Titer Blue in vitro cell viability assay, MCF7. The following applies: 72 h, MCF7 (DMEM), 3 days at 37° C. As for the experimental part:
(§1) FIG. 8: Dose Response curve for MBC0179 with MCF7 cells. Compound MBC0179 was incubated with MCF7, estrogen receptor positive, human breast cancer cells at the indicated concentrations for 3 days at 37° C. prior to Cell Titer Blue fluorescence-based cell viability assay. Normalized cell viability data, expressed as a percentage, are averaged from three biological replicates and standard error represented by error bars for each averaged data point (empty squares). The compound concentrations are represented on log scale on the x-axis in μM units. Data were analyzed using free software called DrFit, as described in Nature Scientific Reports, Article number: 14701, (2015). […]
(§2) The Cell Titer Blue reagent (available from Promega, Inc.) is a buffered solution containing resazurin, a compound that is converted to resorufin, a detectable fluorescent product, by metabolically active cells. The fluorescence intensity of resorufin product therefore serves as a proportional measure of the number of viable cells, permitting changes in cell viability within cancer or other cell lines to be monitored in response to the addition of cytotoxic or cytostatic agents. […] Metastases to the lungs may be conveniently quantified by a well-established clonogenic assay. […]
For orientation: Alamar Blue is a resazurin reagent that responds to reducing activity.

Assay [2] has as its system MDA-MB-231 triple-negative human breast cancer cells. The assay is described as follows: Cell Titer Blue in vitro cell viability assay, MDA-MB-231. As to conditions: MDA-MB-231, 72 h, 3 days at 37° C. As for the experimental part:
FIG. 1: Dose Response curve for MBC017 with MDA-MB-231 cells. Compound MBC017 was incubated with MDA-MB-231 triple-negative human breast cancer cells at the indicated concentrations for 3 days at 37° C. prior to Cell Titer Blue fluorescence-based cell viability assay. Normalized cell viability data, expressed as a percentage, are averaged from three biological replicates and standard error represented by error bars for each averaged data point (empty squares). The compound concentrations are represented on log scale on the x-axis in μM units. Data were analyzed using free software called DrFit, as described in Nature Scientific Reports, Article number: 14701, (2015). […] The data were not sufficient to calculate an accurate IC50 value.
A commercially available in vitro cell viability reagent (Cell Titer Blue) was employed to determine the anti-cancer effectiveness of several compounds (1-5) against multiple cancer and healthy tissue-derived cell lines. Cell lines are summarized in Table 2, as follows: All cell lines and information on each cell lines origins and characteristics were procured from ATCC (www.atcc.org). Common names and ATCC product IDs are shown in the first (leftmost) column. From the left, the second and third columns describe the organism and tissue from which each cell line was isolated. The fourth and fifth columns indicate the cell type and disease status (e.g. normal versus carcinoma) of each cell line. The sixth column provides a summary of what compounds were tested against each cell line using an in vitro cell viability assay. Peptide name IDs are shown in parenthesis for each compound, numbered 1 through 5.
The Cell Titer Blue reagent (available from Promega, Inc.) is a buffered solution containing resazurin, a compound that is converted to resorufin, a detectable fluorescent product, by metabolically active cells. The fluorescence intensity of resorufin product therefore serves as a proportional measure of the number of viable cells, permitting changes in cell viability within cancer or other cell lines to be monitored in response to the addition of cytotoxic or cytostatic agents. Various human breast tissue-derived cell lines are widely employed to study the effects of potential therapeutics against breast cancer in vitro. Human breast cancer cell lines may be subdivided into groups based upon hormone receptor status, i.e. estrogen, progesterone and human epidermal growth factor positive or negative. A healthy human breast tissue-derived cell line, hTERT-HME1 may be used to determine the effect of therapeutic agents on healthy human breast tissue in vitro. Additionally, a highly metastatic and aggressive murine (mouse) breast cancer cell line, 4T1, has been extensively used to monitor breast cancer metastasis from the mammary fat pads of mice to the lungs in order to systematically survey the anti-metastatic effectiveness of anti-cancer therapeutics in an in vivo animal model. Metastases to the lungs may be conveniently quantified by a well-established clonogenic assay. Other human tissue-derived model cell lines, representative of various cancers, other than breast cancer, may be utilized to assess the potential of anti-cancer compounds in vitro. These include, K-562 (chronic myelogenous leukemia), HEPG2 (hepatocellular carcinoma), OVCAR-3 (ovarian adenocarcinoma), SK—N—SH (neuroblastoma) and A549 (lung carcinoma). Several compounds were assayed in vitro using the Cell Titer Blue viability assay against an array of cancer cell lines of both human and murine origin plus one healthy human breast cell line (Table 1, FIGS. 1-16). A mouse 4T1 metastasis study was performed to determine the anti-metastatic potential of one compound, MBC0179 (FIG. 17).
Dimethyl sulfoxide (DMSO), Cremophor EL, methylene blue, 100× antibiotic/antimycotic solution, collagenase (Type IV), DNAse I and 6-thioguanine were available from Millipore-Sigma. […]

In assay [3] the test system is HEPG2 human liver carcinoma cells. The assay is described as follows: Cell Titer Blue in vitro cell viability assay, HEPG2. The following applies: 72 h, HEPG2 (DMEM), 3 days at 37° C. As for the experimental part:
as §1, with “12:” for “8:”, “HEPG2” for “MCF7”, “HEPG2” for “MCF7, estrogen receptor positive,”, “liver carcinoma” for “breast cancer”
as §2

The subject of assay [4] is A549 human lung cancer cells. The assay is described as follows: Cell Titer Blue in vitro cell viability assay, A549. The following applies: 72 h, A549 (DMEM), 3 days at 37° C. On the procedure: as §1, with “13:” for “8:”, “A549” for “MCF7”, “A549” for “MCF7, estrogen receptor positive,”, “lung” for “breast”
as §2

In assay [5] the test system is hTERT-HME1 healthy human breast epithelial cells. In words: Cell Titer Blue in vitro cell viability assay, hTERT-HME1. The following applies: 72 h, hTERT-HME1 (MEGM), 3 days at 37° C. As for the experimental part:
as §1, with “6:” for “8:”, “hTERT-HME1 cells in MEGM Media.” for “MCF7 cells.”, “[…] healthy” for “MCF7, estrogen receptor positive,”, “epithelial” for “cancer”, “cells in growth factor-rich MEGM media” for “cells”
as §2

pIC50: −log10 of the molar value. Non-standard residues stand in square brackets, D forms with d. Residues, ends and D or L forms follow the SMILES beside them. *: point of attachment. Palmitoyl = CCCCCCCCCCCCCCCC(=O)*

Regarding `CCCCCCCCCCCCCCCC(=O)N[C@H](Cc1c[nH]cn1)C(=O)N[C@@H](C(=O)OCC)C(C)C` [Compound 5, N-[N-(1-oxohexadecyl)-D-histidyl]-D-valine ethyl ester] (Palmitoyl-[dH]-[dV]-OEt), the pIC50 in assay [1] was 3.45; in assay [2] (MDA-MB-231 (DMEM)) it was 4.83; in assay [2] (MDA-MB-231 (MEGM)), 5.05; in assay [3] it was 4.60; in assay [4], 4.98; in assay [5], 3.57.

As a reminder, the pIC50 is the IC50 on a negative log10 scale, so that one unit is a factor of ten. High values mean a low IC50, low ones a high IC50.

For the origin of these results see patent US20240124520A1, “N-ACYLATED HISTIDINE DIPEPTIDES AS ANTICANCER AGENTS” (THE BOARD OF TRUSTEES OF THE LELAND STANFORD JUNIOR …, priority 2019, published 2024).
